Results reported in ChEMBL document CHEMBL1150918, “Phospholipase Cgamma1 inhibitory principles from the sarcotestas of Ginkgo biloba” (J Nat Prod, 1998).
≈ marks a conversion by molar mass, not a printed value.

Tests used:
[1] = target: T1, 1-phosphatidylinositol 4,5-bisphosphate phosphodiesterase gamma-1 (Bos taurus, UniProt P08487); experiment: Inhibition of bovine brain PI-PLCgamma1
T1 sequence (P08487 whole entry): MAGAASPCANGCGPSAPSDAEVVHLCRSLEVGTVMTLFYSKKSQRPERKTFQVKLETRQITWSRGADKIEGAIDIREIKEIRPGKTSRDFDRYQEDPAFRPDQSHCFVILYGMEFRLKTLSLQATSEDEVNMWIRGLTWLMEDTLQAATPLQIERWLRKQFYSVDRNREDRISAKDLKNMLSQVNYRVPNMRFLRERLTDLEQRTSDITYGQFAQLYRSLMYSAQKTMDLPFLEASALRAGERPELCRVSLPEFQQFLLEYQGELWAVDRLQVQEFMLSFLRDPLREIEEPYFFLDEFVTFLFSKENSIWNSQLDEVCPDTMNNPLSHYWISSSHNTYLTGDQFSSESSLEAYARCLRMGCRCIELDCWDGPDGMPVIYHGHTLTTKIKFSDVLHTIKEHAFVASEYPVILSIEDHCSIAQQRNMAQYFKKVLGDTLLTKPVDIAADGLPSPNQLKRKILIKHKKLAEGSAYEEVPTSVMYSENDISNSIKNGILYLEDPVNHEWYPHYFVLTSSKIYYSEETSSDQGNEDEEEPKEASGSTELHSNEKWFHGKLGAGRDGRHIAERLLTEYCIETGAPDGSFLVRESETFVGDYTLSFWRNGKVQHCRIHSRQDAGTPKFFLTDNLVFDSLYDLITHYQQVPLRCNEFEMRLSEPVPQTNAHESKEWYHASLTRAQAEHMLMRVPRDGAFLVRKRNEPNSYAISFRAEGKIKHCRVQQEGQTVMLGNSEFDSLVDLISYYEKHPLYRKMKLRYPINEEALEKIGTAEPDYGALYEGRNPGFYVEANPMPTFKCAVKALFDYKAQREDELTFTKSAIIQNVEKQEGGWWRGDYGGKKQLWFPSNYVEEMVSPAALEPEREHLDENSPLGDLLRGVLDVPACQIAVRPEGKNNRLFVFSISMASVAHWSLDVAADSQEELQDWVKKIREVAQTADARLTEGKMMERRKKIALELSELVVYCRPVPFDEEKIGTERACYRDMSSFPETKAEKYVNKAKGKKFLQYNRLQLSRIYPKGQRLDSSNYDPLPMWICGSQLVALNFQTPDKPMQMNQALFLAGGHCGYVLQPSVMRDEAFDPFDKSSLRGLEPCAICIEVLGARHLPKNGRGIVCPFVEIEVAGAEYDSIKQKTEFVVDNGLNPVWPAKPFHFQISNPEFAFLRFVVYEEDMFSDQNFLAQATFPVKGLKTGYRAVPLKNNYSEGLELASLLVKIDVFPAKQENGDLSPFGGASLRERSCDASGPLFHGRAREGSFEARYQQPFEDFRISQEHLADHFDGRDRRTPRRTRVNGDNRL

[2] = Inhibition of pig brain PI-PLCgamma1; design: species or system Sus scrofa
A549 = experiment: Growth inhibition of human A549 cells after 2 days by SRB assay; type: functional, cell-based; details: A549, 48 h
HT1197 = experiment: Growth inhibition of human HT1197 cells after 2 days by SRB assay; type: functional, cell-based; details: HT1197, 48 h
[3] = Growth inhibition of human CCD-18Co cells after 2 days by SRB assay; type: cell-based; details: 48 h
SK-OV-3 = experiment: Growth inhibition of human SKOV3 cells after 2 days by SRB assay; type: functional, cell-based; details: SK-OV-3, 48 h
HCT-15 = experiment: Growth inhibition of human HCT15 cells after 2 days by SRB assay; type: functional, cell-based; details: HCT-15, 48 h
MCF7 = experiment: Growth inhibition of human MCF7 cells after 2 days by SRB assay; type: functional, cell-based; details: MCF7, 48 h
[4] = target: T2, 1-phosphatidylinositol 4,5-bisphosphate phosphodiesterase gamma-1 (Rattus norvegicus, UniProt P10686); experiment: Inhibition of rat brain PI-PLCgamma1
T2 sequence (P10686 whole entry): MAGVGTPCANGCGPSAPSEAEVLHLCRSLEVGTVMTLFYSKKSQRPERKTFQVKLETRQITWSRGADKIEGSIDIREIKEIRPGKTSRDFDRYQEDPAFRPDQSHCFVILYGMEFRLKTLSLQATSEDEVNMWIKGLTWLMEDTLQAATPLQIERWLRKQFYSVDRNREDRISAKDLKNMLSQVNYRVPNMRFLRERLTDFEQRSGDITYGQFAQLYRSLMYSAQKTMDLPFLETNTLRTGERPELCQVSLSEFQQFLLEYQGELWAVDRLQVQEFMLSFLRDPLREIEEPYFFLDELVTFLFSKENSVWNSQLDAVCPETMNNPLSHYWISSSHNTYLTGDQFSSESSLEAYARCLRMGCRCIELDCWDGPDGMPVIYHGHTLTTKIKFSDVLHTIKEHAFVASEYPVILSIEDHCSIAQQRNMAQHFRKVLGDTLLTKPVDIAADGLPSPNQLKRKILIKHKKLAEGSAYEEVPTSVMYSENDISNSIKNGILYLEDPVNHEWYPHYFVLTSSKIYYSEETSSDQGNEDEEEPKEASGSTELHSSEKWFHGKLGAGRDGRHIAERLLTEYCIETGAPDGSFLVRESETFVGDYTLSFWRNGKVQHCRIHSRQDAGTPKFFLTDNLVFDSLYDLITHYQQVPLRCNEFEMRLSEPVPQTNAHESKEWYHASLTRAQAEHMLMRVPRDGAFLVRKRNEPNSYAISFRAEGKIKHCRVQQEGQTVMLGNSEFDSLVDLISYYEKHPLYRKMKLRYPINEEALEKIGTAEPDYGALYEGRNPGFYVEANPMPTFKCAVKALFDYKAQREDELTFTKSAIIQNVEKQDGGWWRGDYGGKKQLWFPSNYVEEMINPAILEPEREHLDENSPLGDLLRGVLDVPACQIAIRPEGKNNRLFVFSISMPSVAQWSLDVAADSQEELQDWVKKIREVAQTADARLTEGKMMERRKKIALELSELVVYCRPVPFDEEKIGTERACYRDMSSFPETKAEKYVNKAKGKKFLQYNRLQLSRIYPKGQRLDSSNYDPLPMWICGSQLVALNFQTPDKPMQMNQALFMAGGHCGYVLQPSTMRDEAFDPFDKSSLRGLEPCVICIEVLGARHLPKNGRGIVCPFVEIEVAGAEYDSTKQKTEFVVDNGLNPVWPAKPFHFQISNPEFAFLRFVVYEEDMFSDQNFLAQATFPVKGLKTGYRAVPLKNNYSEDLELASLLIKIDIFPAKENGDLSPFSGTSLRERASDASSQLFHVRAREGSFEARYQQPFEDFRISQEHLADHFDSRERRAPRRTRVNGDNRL

| Compound | IC50 [1] | IC50 (A549) | IC50 (HCT-15) | IC50 (MCF7) | IC50 (HT1197) | other results |
| --- | --- | --- | --- | --- | --- | --- |
| O=c1cc(-c2ccc(O)c(-c3c(O)cc(O)c4c(=O)cc(-c5ccc(O)cc5)oc34)c2)oc2cc(O)cc(O)c12 [AMENTOFLAVONE] | 29 µM | – | – | – | – | – |
| CC(=O)O[C@@H]1[C@H](O[C@H](CO)[C@H](O)[C@@H](O)[C@@H](OC(C)=O)C(=O)O[C@H](C)CCCCCCCCCCCCCCCc2cccc(O)c2C(=O)O)O[C@H](CO)[C@@H](O)[C@@H]1O [CALOPOROSIDE] | – | – | – | – | – | IC50 [2]: 18 µM |
| Cc1cccc(O)c1 [METACRESOL] | > 2310 µM | – | – | – | – | – |
| CCCCCC/C=C\CCCCCCCc1cc(OC(C)=O)cc(OC(C)=O)c1 | > 621 µM | – | – | – | – | – |
| CCCCCC/C=C\CCCCCCCCCc1cc(O)cc(O)c1 | 30.6 µM | – | – | – | – | – |
| CCCCCCCCCCCCCc1cc(O)cc(O)c1 | 72.3 µM | > 50 µg/mL | 15.3 µg/mL (≈ 52.4 µM) | 1.91 µg/mL (≈ 6.53 µM) | 2.2 µg/mL (≈ 7.52 µM) | IC50 [3]: > 100 µg/mL; IC50 (SK-OV-3): > 50 µg/mL |
| CCCCCCCCCCCCCCCc1cccc(O)c1 | 58 µM | 11.9 µg/mL (≈ 39.1 µM) | 31.9 µg/mL (≈ 105 µM) | 8.71 µg/mL (≈ 28.6 µM) | 41.8 µg/mL (≈ 137 µM) | – |
| CC(=O)c1cc2c(=O)c3c(C(=O)O)c(O)c(O)cc3oc2c(C(C)=O)c1-c1coc2cc(O)c(O)c(C(=O)O)c2c1=O [VINAXANTHONE] | – | – | – | – | – | IC50 [4]: 5.4 µM |
| C[C@@H]1CC[C@H]2[C@]13CC[C@@]1(C)O[C@]2(C)[C@@H](NCCCCN(C)CCCN(C)C)[C@H]1C3 [HISPIDOSPERMIDIN] | – | – | – | – | – | IC50 [4]: 16 µM |
| CCCCCCCCCCCCCc1cccc(O)c1 | 57.8 µM | 25.9 µg/mL (≈ 93.7 µM) | 29.7 µg/mL (≈ 107 µM) | 7.04 µg/mL (≈ 25.5 µM) | 14.6 µg/mL (≈ 52.7 µM) | IC50 [3]: 73.2 µg/mL (≈ 265 µM); IC50 (SK-OV-3): > 50 µg/mL |
| O=C(O)c1ccccc1O [SALICYLIC ACID] | 873 µM | – | – | – | – | – |
| CCCCCC/C=C\CCCCCCCCCc1cccc(O)c1 | 9.73 µM | 11.8 µg/mL (≈ 35.7 µM) | 32.9 µg/mL (≈ 99.5 µM) | 7.19 µg/mL (≈ 21.8 µM) | 20.8 µg/mL (≈ 63 µM) | IC50 [3]: 66.4 µg/mL (≈ 201 µM) |
| Cc1cc(O)cc(O)c1 [ORCINOL] | > 2010 µM | – | – | – | – | – |

Further lines, with some results ahead:

| IC50 [1] | IC50 (A549) | IC50 (HCT-15) | IC50 (MCF7) | Compound | IC50 (HT1197) | other results |
| --- | --- | --- | --- | --- | --- | --- |
| 16.3 µM | > 50 µg/mL | > 50 µg/mL | 22.7 µg/mL (≈ 70.7 µM) | CCCCCCCCCCCCCc1cccc(O)c1C(=O)O [GINKGOLIC ACID 13:0] | 44.6 µg/mL (≈ 139 µM) | IC50 [3]: 59.1 µg/mL (≈ 184 µM); IC50 (SK-OV-3): 20.4 µg/mL (≈ 63.7 µM) |
| 2.22 µM | 29.2 µg/mL (≈ 78 µM) | 8.39 µg/mL (≈ 22.4 µM) | 5.06 µg/mL (≈ 13.5 µM) | CCCCCC/C=C\CCCCCCCCCc1cccc(O)c1C(=O)O [GINKGOLIC ACID 17:1] | 28.1 µg/mL (≈ 75.1 µM) | IC50 (SK-OV-3): > 50 µg/mL |
| > 621 µM | – | – | – | CCCCCC/C=C\CCCCCCCc1cccc(OC(C)=O)c1C(=O)OC | – | – |
| > 693 µM | – | – | – | CCCCCC/C=C\CCCCCCCc1cccc(O)c1C(=O)OC | – | – |
| > 726 µM | – | – | – | CCCCCC/C=C\CCCCCCCc1cccc(OC(C)=O)c1 | – | – |
| 5.66 µM | 31.3 µg/mL (≈ 90.3 µM) | 12.7 µg/mL (≈ 36.7 µM) | 6.44 µg/mL (≈ 18.6 µM) | CCCCCC/C=C\CCCCCCCc1cccc(O)c1C(=O)O [GINGKOLIC ACID] | 46.3 µg/mL (≈ 134 µM) | IC50 [3]: 97.1 µg/mL (≈ 280 µM); IC50 (SK-OV-3): > 50 µg/mL |
